Calls of active or inactive are those of the source.
Experiments:
CAAX prenyl protease 2 [1] = target: T1, CAAX prenyl protease 2 (Saccharomyces cerevisiae S288c, UniProt Q03530); type: biochemical
T1 sequence (Q03530 whole entry): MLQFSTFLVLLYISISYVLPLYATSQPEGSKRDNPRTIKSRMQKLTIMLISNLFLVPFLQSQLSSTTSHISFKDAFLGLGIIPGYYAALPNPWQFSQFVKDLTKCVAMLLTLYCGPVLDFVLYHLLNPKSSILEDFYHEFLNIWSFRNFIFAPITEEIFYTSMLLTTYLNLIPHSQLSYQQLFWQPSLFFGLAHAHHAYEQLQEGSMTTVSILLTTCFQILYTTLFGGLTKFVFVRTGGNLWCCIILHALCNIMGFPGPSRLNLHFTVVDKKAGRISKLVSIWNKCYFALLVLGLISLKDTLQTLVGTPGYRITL

CAAX prenyl protease 2 [2] = target: T1, CAAX prenyl protease 2; test: inhibition of Rce1p peptide cleavage – biochemical, plate reader, dry powder retest, dose response (AID 588851)
[3] = toxicity toward cultured mammalian cells – cell-based, plate reader, cherry-pick samples, cytotoxicity control, dose response (AID 504397); type: functional
[4] = target: Latent membrane protein 1 (Human herpesvirus 4 (strain B95-8), UniProt P03230); test: LMP1 TES1 pathway selectivity over dsRED control – imaging, HEK293T, dual-color eGFP/dsRED, cherry-picks, selectivity assay for LMP1 NF-kB inhibitor project, dose response (AID 588398); type: functional, cell-based
Sequence of Latent membrane protein 1 (P03230 whole entry): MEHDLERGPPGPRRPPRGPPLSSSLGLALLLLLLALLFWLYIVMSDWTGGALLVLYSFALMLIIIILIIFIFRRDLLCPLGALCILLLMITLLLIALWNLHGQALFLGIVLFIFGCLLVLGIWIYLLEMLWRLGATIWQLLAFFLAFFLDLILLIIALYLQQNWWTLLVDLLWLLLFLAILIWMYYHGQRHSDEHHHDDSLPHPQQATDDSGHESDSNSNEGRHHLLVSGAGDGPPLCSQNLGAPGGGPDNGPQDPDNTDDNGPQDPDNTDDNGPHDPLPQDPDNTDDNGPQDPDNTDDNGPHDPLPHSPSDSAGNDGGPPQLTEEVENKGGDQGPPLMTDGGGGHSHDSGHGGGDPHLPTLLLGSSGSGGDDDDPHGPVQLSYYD

[5] = target: T2, Sentrin-specific protease 7 (Homo sapiens, UniProt Q9BQF6); test: inhibition of human SENP7 cleavage activity – biochemical, luminescence, set 2, SAR follow-up (AID 588600); type: functional
T2 sequence (Q9BQF6 whole entry): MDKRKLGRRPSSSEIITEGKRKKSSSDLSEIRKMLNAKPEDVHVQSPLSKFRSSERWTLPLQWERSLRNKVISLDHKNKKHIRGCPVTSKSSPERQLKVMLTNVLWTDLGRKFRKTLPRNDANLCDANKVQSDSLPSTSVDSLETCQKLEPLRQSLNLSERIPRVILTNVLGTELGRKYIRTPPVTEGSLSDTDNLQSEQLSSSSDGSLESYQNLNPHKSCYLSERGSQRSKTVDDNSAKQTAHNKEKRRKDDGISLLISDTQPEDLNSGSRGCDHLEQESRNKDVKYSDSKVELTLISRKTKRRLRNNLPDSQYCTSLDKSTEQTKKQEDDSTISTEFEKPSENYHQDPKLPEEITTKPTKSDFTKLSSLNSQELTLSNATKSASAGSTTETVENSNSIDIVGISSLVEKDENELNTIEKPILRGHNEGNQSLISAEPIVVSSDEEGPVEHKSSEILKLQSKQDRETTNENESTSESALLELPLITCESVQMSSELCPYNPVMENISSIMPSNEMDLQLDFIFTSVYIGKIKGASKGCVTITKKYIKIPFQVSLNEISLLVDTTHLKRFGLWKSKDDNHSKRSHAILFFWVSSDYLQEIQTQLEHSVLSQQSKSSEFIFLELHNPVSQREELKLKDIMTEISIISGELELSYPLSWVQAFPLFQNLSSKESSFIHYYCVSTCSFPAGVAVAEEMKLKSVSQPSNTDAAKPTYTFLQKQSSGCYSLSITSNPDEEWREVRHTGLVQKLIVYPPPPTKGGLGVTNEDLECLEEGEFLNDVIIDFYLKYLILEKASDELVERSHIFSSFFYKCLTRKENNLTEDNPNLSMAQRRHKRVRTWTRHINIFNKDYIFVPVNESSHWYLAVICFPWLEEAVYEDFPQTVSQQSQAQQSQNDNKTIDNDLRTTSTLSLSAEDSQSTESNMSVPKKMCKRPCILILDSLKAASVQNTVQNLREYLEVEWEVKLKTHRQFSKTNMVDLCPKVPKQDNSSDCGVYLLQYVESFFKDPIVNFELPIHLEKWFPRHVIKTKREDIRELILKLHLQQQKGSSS

[6] = target: T3, Sentrin-specific protease 8 (Homo sapiens, UniProt Q96LD8); test: inhibition of human SENP8 cleavage activity – biochemical, luminescence, SAR follow-up (AID 504501); type: functional
T3 sequence (Q96LD8 whole entry): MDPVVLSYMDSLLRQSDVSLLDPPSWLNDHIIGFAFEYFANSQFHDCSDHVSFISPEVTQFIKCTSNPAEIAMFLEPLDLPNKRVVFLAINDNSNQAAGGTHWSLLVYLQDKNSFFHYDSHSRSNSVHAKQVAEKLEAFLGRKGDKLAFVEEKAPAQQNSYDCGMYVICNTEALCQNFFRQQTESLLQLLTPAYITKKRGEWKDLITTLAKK

Caspase-3 [7] = target: T4, Caspase-3 (Homo sapiens, UniProt P42574); test: inhibition of recombinant caspase-3 activity – biochemical, luminescence, set 2, selectivity assay for SENP protease inhibitor project, SAR follow-up (AID 588599); type: functional
T4 sequence (P42574 whole entry): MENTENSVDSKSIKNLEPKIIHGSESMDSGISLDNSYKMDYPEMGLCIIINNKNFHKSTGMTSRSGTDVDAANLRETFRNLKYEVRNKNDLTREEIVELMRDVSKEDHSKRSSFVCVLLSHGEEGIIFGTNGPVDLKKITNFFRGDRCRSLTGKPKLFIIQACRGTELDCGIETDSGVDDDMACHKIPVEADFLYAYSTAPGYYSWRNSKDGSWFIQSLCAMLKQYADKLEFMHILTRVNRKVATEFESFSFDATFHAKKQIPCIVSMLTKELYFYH

[8] = target: T5, Sentrin-specific protease 6 (Homo sapiens, UniProt Q9GZR1); test: inhibition of human SENP6 catalytic domain – biochemical, luminescence, set 2, SAR follow-up (AID 588598); type: functional
T5 sequence (Q9GZR1 whole entry): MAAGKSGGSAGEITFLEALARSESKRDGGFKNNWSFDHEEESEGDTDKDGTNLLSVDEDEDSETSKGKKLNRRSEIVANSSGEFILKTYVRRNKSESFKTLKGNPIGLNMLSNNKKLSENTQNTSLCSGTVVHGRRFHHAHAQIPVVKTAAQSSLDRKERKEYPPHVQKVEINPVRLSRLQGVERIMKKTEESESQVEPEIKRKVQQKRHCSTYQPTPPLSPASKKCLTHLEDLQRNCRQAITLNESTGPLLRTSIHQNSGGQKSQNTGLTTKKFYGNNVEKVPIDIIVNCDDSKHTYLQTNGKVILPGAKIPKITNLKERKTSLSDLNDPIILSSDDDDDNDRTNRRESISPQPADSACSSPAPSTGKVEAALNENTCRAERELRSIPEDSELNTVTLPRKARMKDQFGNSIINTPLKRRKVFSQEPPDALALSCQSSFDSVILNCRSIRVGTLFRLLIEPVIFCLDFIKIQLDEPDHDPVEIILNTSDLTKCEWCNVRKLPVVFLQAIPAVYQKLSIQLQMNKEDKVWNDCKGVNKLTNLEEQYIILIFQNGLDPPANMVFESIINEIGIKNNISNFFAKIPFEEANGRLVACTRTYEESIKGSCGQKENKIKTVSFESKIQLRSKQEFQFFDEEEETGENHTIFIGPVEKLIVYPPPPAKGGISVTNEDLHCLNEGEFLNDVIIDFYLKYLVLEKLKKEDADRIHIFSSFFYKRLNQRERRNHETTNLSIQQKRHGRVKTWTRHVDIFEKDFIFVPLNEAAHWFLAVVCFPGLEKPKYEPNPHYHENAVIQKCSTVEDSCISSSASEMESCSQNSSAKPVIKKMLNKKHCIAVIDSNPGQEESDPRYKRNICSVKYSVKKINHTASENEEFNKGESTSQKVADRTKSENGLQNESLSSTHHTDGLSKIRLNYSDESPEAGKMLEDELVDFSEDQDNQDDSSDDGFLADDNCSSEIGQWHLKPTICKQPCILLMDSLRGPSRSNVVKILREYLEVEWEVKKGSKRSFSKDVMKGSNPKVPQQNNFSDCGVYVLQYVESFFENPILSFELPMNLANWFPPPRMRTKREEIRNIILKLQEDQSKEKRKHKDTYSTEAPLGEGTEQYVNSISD

Caspase-3 [9] = target: T4, Caspase-3; test: SAR Analysis of small molecule inhibitors of Sentrin-specific proteases (SENPs) using a Caspase-3 Selectivity assay. [Related pubchem assays (depositor defined):AID2540, AID2599, AID434973, AID489001]; type: functional
[10] = target: T5, Sentrin-specific protease 6; test: SAR Analysis of small molecule inhibitors of Sentrin-specific protease 6 (SENP6) using a Luminescent assay. [Related pubchem assays (depositor defined):AID2582, AID2599]; type: functional
[11] = target: T2, Sentrin-specific protease 7; test: inhibition of human SENP7 cleavage activity – biochemical, luminescence, SAR follow-up (AID 504497); type: functional
[12] = target: T3, Sentrin-specific protease 8; test: inhibition of sentrin protease 8 – biochemical, luminescence, set 2, SAR follow-up (AID 588601); type: functional
[13] = target: Multidrug resistance protein CDR2 (Candida albicans (strain SC5314 / ATCC MYA-2876) (Yeast), UniProt P78595); test: inhibition of Nile Red efflux via Candida CDR2 – S. cerevisiae AD1-8u, singleplex, Cherry Pick1 hits, dose response (AID 588604); type: functional
Sequence of Multidrug resistance protein CDR2 (P78595 whole entry): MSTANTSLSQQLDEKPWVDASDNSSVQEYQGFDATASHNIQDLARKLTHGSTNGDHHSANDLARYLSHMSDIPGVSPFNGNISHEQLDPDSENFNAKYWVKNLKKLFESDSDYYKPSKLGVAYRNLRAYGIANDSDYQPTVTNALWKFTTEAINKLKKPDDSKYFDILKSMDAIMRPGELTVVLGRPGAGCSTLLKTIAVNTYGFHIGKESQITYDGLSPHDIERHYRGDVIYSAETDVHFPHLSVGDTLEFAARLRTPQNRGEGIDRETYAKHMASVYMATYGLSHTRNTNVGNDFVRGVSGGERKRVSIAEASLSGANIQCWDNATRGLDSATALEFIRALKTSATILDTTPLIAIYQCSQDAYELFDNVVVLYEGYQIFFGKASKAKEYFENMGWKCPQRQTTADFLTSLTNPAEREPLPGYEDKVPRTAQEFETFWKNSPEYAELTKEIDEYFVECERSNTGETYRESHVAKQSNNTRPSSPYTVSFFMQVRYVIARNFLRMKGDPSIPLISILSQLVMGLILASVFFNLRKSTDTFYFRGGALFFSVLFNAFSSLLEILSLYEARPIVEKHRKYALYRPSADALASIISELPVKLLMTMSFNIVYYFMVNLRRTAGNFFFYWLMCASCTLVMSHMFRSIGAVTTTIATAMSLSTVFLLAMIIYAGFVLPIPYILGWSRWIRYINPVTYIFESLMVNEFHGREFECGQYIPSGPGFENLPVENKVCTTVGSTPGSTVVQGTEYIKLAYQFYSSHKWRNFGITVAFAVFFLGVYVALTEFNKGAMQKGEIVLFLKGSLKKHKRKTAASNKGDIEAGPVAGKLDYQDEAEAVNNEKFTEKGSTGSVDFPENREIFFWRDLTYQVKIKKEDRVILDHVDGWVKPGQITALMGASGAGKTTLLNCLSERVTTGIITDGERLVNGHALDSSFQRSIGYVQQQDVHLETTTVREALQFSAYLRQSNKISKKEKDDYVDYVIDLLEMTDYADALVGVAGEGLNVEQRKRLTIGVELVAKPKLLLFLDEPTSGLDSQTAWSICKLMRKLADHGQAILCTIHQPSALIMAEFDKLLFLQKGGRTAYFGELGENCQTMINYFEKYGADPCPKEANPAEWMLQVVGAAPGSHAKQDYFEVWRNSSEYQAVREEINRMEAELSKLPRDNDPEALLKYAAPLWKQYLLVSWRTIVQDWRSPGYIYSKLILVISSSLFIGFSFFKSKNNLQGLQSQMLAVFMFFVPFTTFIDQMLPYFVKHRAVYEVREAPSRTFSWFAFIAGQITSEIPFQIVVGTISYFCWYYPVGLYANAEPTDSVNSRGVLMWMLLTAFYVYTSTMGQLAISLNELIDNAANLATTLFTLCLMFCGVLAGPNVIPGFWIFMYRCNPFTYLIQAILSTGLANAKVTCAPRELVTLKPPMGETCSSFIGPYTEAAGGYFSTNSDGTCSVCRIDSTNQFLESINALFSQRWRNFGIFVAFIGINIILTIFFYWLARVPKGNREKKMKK

[14] = target: Glycogen synthase kinase-3 alpha (Homo sapiens, UniProt P49840); type: functional;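 note: GSK3A result taken from a broad kinome-wide kinase panel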
Sequence of Glycogen synthase kinase-3 alpha (P49840 whole entry): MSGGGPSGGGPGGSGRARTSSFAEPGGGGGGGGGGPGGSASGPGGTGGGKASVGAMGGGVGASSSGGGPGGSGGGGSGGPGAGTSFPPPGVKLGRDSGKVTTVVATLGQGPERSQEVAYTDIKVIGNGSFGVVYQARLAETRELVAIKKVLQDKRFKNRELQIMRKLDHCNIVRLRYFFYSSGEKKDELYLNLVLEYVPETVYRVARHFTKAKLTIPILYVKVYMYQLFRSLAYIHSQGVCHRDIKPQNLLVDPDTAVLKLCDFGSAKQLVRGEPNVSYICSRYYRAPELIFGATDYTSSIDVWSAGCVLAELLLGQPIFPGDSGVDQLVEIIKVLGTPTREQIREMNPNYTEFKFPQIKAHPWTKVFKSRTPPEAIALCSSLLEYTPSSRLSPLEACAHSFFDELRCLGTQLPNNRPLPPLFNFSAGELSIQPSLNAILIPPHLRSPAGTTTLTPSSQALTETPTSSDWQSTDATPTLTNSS

Ephrin type-A receptor 2 = Ephrin type-A receptor 2 (Homo sapiens, UniProt P29317); type: functional;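 note: EPHA2 tested as one member of a kinome-wide kinase panel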
Sequence of Ephrin type-A receptor 2 (P29317 whole entry): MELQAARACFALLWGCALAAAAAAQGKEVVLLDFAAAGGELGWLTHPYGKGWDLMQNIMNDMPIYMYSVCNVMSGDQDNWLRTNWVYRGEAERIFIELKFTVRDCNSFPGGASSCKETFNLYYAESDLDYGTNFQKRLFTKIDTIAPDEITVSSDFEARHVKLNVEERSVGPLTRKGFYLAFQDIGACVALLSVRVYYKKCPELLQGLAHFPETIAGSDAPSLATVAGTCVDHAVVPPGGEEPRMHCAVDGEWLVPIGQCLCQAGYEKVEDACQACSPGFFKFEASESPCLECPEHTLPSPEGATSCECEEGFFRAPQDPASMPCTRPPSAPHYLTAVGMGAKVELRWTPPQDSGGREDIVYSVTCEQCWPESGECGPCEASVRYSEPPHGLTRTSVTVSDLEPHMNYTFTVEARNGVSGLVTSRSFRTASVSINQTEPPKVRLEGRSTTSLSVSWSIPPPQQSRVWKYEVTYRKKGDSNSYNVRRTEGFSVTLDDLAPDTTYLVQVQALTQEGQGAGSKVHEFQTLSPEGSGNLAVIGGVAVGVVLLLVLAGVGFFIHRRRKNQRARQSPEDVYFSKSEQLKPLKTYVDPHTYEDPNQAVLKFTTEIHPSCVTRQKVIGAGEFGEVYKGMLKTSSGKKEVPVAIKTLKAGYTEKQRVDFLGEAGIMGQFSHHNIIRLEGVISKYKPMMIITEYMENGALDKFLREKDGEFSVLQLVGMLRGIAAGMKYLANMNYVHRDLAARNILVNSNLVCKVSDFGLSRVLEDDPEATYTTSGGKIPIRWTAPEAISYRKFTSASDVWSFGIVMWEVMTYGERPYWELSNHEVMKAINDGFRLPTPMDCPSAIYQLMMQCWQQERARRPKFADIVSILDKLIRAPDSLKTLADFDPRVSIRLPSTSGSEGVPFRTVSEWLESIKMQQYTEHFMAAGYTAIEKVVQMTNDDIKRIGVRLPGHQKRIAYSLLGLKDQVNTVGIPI

[15] = NIH-3T3 fibroblast cytotoxicity, dose response, cytotoxicity control, cell-based, fluorescence, Alamar Blue, secondary assay (AID 2327); type: functional;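 note: NIH-3T3 mouse fibroblasts cultured with fluconazole at 8 µg/mL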
[16] = fluconazole-exposed Candida albicans growth modulators – fluorescence, retest, confirmation (AID 2467); type: functional, cell-based
[17] = target: T6, Hepatocyte nuclear factor 4-alpha (Homo sapiens, UniProt P41235); type: functional, cell-based;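 note: biochemical luminescence-based dose-response counterscreen measuring inhibition of HNF4 dimerization, run alongside a screen for blockers of ABHD5–perilipin-5 interaction; split luciferase complementation of HNF4 fusion proteins in cell lysate measuring dimerization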
T6 sequence (P41235 whole entry): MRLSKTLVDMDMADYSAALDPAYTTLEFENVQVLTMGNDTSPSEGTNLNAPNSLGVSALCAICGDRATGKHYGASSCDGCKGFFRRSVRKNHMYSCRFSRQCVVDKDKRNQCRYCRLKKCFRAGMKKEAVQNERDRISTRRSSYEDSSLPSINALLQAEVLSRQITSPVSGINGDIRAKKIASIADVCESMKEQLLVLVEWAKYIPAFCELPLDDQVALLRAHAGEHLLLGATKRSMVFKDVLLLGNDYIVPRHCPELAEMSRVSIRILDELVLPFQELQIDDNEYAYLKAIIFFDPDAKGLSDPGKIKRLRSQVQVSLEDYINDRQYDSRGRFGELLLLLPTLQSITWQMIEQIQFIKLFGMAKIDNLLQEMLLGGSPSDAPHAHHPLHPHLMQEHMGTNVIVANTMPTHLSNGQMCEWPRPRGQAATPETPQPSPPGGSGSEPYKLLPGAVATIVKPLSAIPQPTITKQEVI

[18] = target: Protein disulfide-isomerase (Homo sapiens, UniProt P07237); test: inhibition of PDI-driven insulin aggregation – biochemical, turbidity, absorbance, cherry-picked samples, dose response (AID 602350); type: functional
Sequence of Protein disulfide-isomerase (P07237 whole entry): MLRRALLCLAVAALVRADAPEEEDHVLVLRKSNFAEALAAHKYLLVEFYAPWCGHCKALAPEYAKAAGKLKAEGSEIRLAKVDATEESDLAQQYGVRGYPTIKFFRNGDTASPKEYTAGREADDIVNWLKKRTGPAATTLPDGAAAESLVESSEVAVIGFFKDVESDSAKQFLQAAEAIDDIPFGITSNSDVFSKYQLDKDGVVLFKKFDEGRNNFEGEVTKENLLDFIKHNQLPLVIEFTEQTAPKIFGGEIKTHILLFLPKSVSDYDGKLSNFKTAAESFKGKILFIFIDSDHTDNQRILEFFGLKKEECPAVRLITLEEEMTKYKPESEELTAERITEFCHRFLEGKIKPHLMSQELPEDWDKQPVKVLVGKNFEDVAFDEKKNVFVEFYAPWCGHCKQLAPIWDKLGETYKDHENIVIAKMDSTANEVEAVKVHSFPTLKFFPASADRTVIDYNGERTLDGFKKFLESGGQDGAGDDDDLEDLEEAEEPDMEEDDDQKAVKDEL

[19] = target: T7, High affinity choline transporter 1 (Homo sapiens, UniProt Q9GZV3); test: human choline transporter potentiators, potency – cell-based, 10-point CRC, membrane potential dye, dose response (AID 602376); type: functional
T7 sequence (Q9GZV3 whole entry): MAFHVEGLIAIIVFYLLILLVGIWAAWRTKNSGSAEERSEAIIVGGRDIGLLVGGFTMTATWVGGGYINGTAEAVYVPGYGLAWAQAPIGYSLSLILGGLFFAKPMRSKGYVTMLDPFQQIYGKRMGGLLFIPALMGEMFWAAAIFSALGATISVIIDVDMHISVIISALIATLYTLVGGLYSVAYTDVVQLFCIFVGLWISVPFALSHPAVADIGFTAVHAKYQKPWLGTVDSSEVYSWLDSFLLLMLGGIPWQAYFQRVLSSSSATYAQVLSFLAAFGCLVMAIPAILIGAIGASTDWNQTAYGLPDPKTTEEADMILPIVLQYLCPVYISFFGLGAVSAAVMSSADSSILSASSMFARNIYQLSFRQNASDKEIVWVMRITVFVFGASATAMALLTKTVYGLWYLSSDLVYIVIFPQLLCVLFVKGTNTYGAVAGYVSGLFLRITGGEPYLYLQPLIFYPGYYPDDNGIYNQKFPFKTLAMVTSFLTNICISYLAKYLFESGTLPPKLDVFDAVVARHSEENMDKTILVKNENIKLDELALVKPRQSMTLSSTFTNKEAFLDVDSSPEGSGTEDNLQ

H9c2 = test: cells; type: functional, cell-based; conditions: Rattus norvegicus, H9c2, Myocardium
INS1 [20] = test: cellular ATP toxicity in rat beta cells – cell-based, CellTiter-Glo luminescence, INS-1E, dry powder, cytotoxicity control for beta-cell cytokine protection project, dose response (AID 488864); type: functional
[21] = suppression of NO production in INS-1E cells – cell-based, Griess absorbance, dry powder, set 3, dose response (AID 488870); type: functional; conditions: Rattus norvegicus
INS1 [22] = test: suppression of NO production in INS-1E cells – cell-based, Griess absorbance, dry powder, set 2, dose response (AID 488868); type: functional; conditions: Rattus norvegicus

## Cc1ccc(SCc2c(C(=O)N/N=C/c3ccccc3)nnn2-c2nonc2N)cc1
CAAX prenyl protease 2 [1]
  AC50: 141 nM (active)
CAAX prenyl protease 2 [2]
  AC50: 3.7 µM (active)
[3]
  AC50: 73 µM (active)

## O=C(Nc1ccccn1)NC1CCCCC1
[4]
  AC50: 66.5 µM (active)

## COc1ccc(/C=C/c2noc(-c3ccccc3O)n2)cc1
[5]
  IC50: 1.35 µM (active)
[6]
  IC50: 1.3 µM (active)
Caspase-3 [7]
  IC50: 1.17 µM (active)
[8]
  IC50: 1.26 µM (active)
Caspase-3 [9]
  IC50: 1.4 µM (active)
[10]
  IC50: 1.4 µM (active)
[11]
  IC50: 1.1 µM (active)
[12]
  IC50: 1.19 µM (active)

## O=C(Cn1c(COc2ccccc2)nc2ccccc21)Nc1cc(Cl)c(Cl)cc1Cl
[13]
  EC50: 15.7 µM (active)

## Cc1ccc(NC(=O)c2cnn3c(-c4ccccc4)ccnc23)cc1C
[14]
  Ki: 7.94 µM (active)
Ephrin type-A receptor 2
  Ki: 2 µM (active)

## O=C(/C=C/c1ccc(NC(=O)c2ccccc2-c2ccccc2C(=O)O)cc1)c1ccccc1
[15]
  EC50: > 150 µM (inactive)
[16]
  EC50: > 38 µM (not active)
[17]
  IC50: 8.66 µM (active)
[18]
  AC50: 11.4 µM (active)

## COC(=O)c1ccc(C(NC(=O)OCc2ccccc2)/C(C)=C/[C@@H](C)C(=O)NCc2ccc(OC)c(OC)c2)cc1 (some centres undefined)
[19]
  EC50: 12.3 µM (active)
H9c2
  IC50: 10.6 µM (active)

## C[C@@H]1CN([C@@H](C)CO)C(=O)c2cccc(NC(=O)Nc3cccc4ccccc34)c2O[C@H]1CN(C)S(=O)(=O)c1ccc(OC(F)(F)F)cc1
INS1 [20]
  AC50: 18.5 µM (active)
[21]
  AC50: 20.3 µM (active)
INS1 [22]
  AC50: 16.5 µM (active)

From ChEMBL document CHEMBL1201862, “PubChem BioAssay data set” (2004)
